Where a name gives a salt, the structure may show the parent alone.
Assays:
Type in all cases: physicochemical
Solubility in water [1] = assay: Solubility in water
[2] = Solubility of photosensitive agent in polyvinylpyrrolidone/ethylcellosolve solution; details: Table 4; 5 g polyvinylpyrrolidone in 106 g ethylcellosolve; sodium salt (*): solubility varied with crystal form
[3] = as above; details: Table 2; 5 g polyvinylpyrrolidone in 106 g ethylcellosolve; sodium salt (*): solubility varied with crystal form
Method: The respective Amides synthesized in Examples 1 and 2 in amounts shown in Table 2 are dissolved in a solution comprising 5 g of polyvinylpyrrolidone (average molecular weight: 320,000) dissolved in 106 g of ethylcellosolve,to evaluate their solubility.

[4] = Solubility in ethylcellosolve solution containing 4.5% polyvinylpyrrolidone and compatibility with binder polymers; details: Example 20
Source text: A 4,4'-diazidostilbene-2,2'-disulfonic acid aqueous solution was obtained using the same procedures as in Example 15. It was mixed with dibutylamine and the pH value adjusted to 9.0 to deposit crystals. The crystals were filtered, washed with water, and dried to obtain dibutylamine salt of 4,4'-diazidostilbene-2,2'-disulfonic acid (yield: 91.2%).

Solubility in water [5] = assay: Solubility in water; remark: listed apart in the source
Method: (§1) The compounds shown in Table 7 were prepared using the same procedures as in Example 16, and each compound was measured for solubilities in 2.5% ethylcellosolve and water to obtain the results shown in Table 7.

[6] = Solubility in 2.5% ethylcellosolve; design: key to Solubility in 2.5% ethylcellosolve, 25° C. / Solubility in 2.5% ethylcellosolve, 60° C.: Good: completely soluble; Fair: with small amounts of undissolved portion; Poor: with large amounts of undissolved portion; details: for Solubility in 2.5% ethylcellosolve, 25° C. / Solubility in 2.5% ethylcellosolve, 60° C.: Table 7; for solubility (comparison in words): compared to Comparative Examples 14-16, Table 7
Method: as §1

[7] = listed as Comparative Example 16
[8] = listed as Comparative Example 15

## [N-]=[N+]=Nc1ccc(C=Cc2ccc(N=[N+]=[N-])cc2S(=O)(=O)O)c(S(=O)(=O)O)c1 [Example 17, triethylamine salt of 4,4'-diazidostilbene-2,2'-disulfonic acid]
Solubility in water [1]; Table 5
  Solubility (water, 25° C.): ≥ 10%

## CC(C)CNS(=O)(=O)c1cc(N=[N+]=[N-])ccc1C=Cc1ccc(N=[N+]=[N-])cc1S(=O)(=O)NCC(C)C [Amide No. 10]
[2]
  Solubility: Good

## CCCCCCCCNS(=O)(=O)c1cc(N=[N+]=[N-])ccc1C=Cc1ccc(N=[N+]=[N-])cc1S(=O)(=O)NCCCCCCCC [Amide No. 9]
[2]
  Solubility: Good

## COCCOCCNS(=O)(=O)c1cc(N=[N+]=[N-])ccc1C=Cc1ccc(N=[N+]=[N-])cc1S(=O)(=O)NCCOCCOC [Amide No. 7]
[3]
  Solubility: Good

## [N-]=[N+]=Nc1ccc(C=Cc2ccc(N=[N+]=[N-])cc2S(=O)(=O)O)c(S(=O)(=O)O)c1 [Example 20, dibutylamine salt of 4,4'-diazidostilbene-2,2'-disulfonic acid]
[4]
  compatibility with binder polymers: high in compatibility with binder polymers
  soluble in an ethylcellosolve solution containing 4.5% polyvinylpyrrolidone: ≥ 5%
Solubility in water [1]; Example 20
  solubility in water (in words): very low in solubility in water

## [N-]=[N+]=Nc1ccc(C=Cc2ccc(N=[N+]=[N-])cc2S(=O)(=O)Nc2ccccc2)c(S(=O)(=O)Nc2ccccc2)c1 [Arylamide B, reference compound]
[2]
  Solubility: Poor

## CC1CC(=Cc2ccc(N=[N+]=[N-])cc2S(=O)(=O)O)C(=O)C(=Cc2ccc(N=[N+]=[N-])cc2S(=O)(=O)O)C1 (stereo not shown) [Example 18]
Solubility in water [1]; Table 6
  Solubility (water, 25° C.): 7.0%

## [N-]=[N+]=Nc1ccc(C=Cc2ccc(N=[N+]=[N-])cc2S(=O)(=O)O)c(S(=O)(=O)O)c1 [Ammonium salt, reference compound]
Solubility in water [5]; Table 7, listed as Comparative Example 16
  Solubility in water, 25° C.: 18%
[2]
  Solubility: Poor
[3]
  Solubility: Poor
Solubility in water [1]; Table 5, listed as Comparative Example 12
  Solubility (water, 25° C.): 1.8%
[6]; [7]
  Solubility in 2.5% ethylcellosolve, 25° C.: Poor
  Solubility in 2.5% ethylcellosolve, 60° C.: Poor

## CCCNS(=O)(=O)c1cc(N=[N+]=[N-])ccc1C=Cc1ccc(N=[N+]=[N-])cc1S(=O)(=O)NCCC [Lower alkyl amide A, reference compound]
[2]
  Solubility: Poor

## [N-]=[N+]=Nc1ccc(C=Cc2ccc(N=[N+]=[N-])cc2S(=O)(=O)O)c(S(=O)(=O)O)c1 [Example 22]
Solubility in water [5]; Table 7
  Solubility in water, 25° C.: ≥ 10%
[6]
  Solubility in 2.5% ethylcellosolve, 25° C.: Good
  Solubility in 2.5% ethylcellosolve, 60° C.: Good
  solubility (comparison in words): good solubilities

## CCOCCNS(=O)(=O)c1cc(N=[N+]=[N-])ccc1C=Cc1ccc(N=[N+]=[N-])cc1S(=O)(=O)NCCOCC [Amide No. 8]
[3]
  Solubility: Good

## CCCCCN(CCCCC)S(=O)(=O)c1cc(N=[N+]=[N-])ccc1C=Cc1ccc(N=[N+]=[N-])cc1S(=O)(=O)N(CCCCC)CCCCC [Amide No. 15]
[2]
  Solubility: Good

## [N-]=[N+]=Nc1ccc(C=Cc2ccc(N=[N+]=[N-])cc2S(=O)(=O)Nc2ccccc2)c(S(=O)(=O)Nc2ccccc2)c1 [Arylamide A, reference compound]
[3]
  Solubility: Poor

## [N-]=[N+]=Nc1ccc(C=Cc2ccc(N=[N+]=[N-])cc2S(=O)(=O)NCCOCCO)c(S(=O)(=O)NCCOCCO)c1 [Amide No. 4]
[3]
  Solubility: Good

## CCOCCOS(=O)(=O)c1cc(N=[N+]=[N-])ccc1C=Cc1ccc(N=[N+]=[N-])cc1S(=O)(=O)OCCOCC [Ester B, reference compound]
[3]
  Solubility: Good

## CC1CC(=Cc2ccc(N=[N+]=[N-])cc2S(=O)(=O)O)C(=O)C(=Cc2ccc(N=[N+]=[N-])cc2S(=O)(=O)O)C1 (stereo not shown) [Example 19, triethylamine salt of 2,6-bis-(4'-azidobenzal)-4-methyl-cyclohexanone-2,2'-disulfonic acid]
Solubility in water [1]; Table 6
  Solubility (water, 25° C.): ≥ 10%

## CCCCN(C)S(=O)(=O)c1cc(N=[N+]=[N-])ccc1C=Cc1ccc(N=[N+]=[N-])cc1S(=O)(=O)N(C)CCCC [Amide No. 14]
[2]
  Solubility: Good

## CCCCOS(=O)(=O)c1cc(N=[N+]=[N-])ccc1C=Cc1ccc(N=[N+]=[N-])cc1S(=O)(=O)OCCCC [Ester C, reference compound]
[2]
  Solubility: Good

## [N-]=[N+]=Nc1ccc(C=Cc2ccc(N=[N+]=[N-])cc2S(=O)(=O)O)c(S(=O)(=O)O)c1 [Example 16]
Solubility in water [1]; Table 5
  Solubility (water, 25° C.): ≥ 10%

## CC(CCO)NS(=O)(=O)c1cc(N=[N+]=[N-])ccc1C=Cc1ccc(N=[N+]=[N-])cc1S(=O)(=O)NC(C)CCO (stereo not shown) [Amide No. 3]
[3]
  Solubility: Good

## CCCCCCCNS(=O)(=O)c1cc(N=[N+]=[N-])ccc1C=Cc1ccc(N=[N+]=[N-])cc1S(=O)(=O)NCCCCCCC [Amide No. 11]
[2]
  Solubility: Good

## [N-]=[N+]=Nc1ccc(C=Cc2ccc(N=[N+]=[N-])cc2S(=O)(=O)O)c(S(=O)(=O)O)c1 [compound 11, reference compound]
Solubility in water [1]; Table 5
  Solubility (water, 25° C.): 3.0%
[6]; [8]
  Solubility in 2.5% ethylcellosolve, 25° C.: Poor
  Solubility in 2.5% ethylcellosolve, 60° C.: Poor

## [N-]=[N+]=Nc1ccc(C=Cc2ccc(N=[N+]=[N-])cc2S(=O)(=O)NCCO)c(S(=O)(=O)NCCO)c1 [Amide No. 2]
[3]
  Solubility: Good

## [N-]=[N+]=Nc1ccc(C=Cc2ccc(N=[N+]=[N-])cc2S(=O)(=O)O)c(S(=O)(=O)O)c1 [Example 21]
Solubility in water [5]; Table 7
  Solubility in water, 25° C.: 6.5%
[6]
  Solubility in 2.5% ethylcellosolve, 25° C.: Good
  Solubility in 2.5% ethylcellosolve, 60° C.: Good
  solubility (comparison in words): good solubilities

## [N-]=[N+]=Nc1ccc(C=Cc2ccc(N=[N+]=[N-])cc2S(=O)(=O)NCCCO)c(S(=O)(=O)NCCCO)c1 [Amide No. 1]
[3]
  Solubility: Good

## [N-]=[N+]=Nc1ccc(C=Cc2ccc(N=[N+]=[N-])cc2S(=O)(=O)[O-])c(S(=O)(=O)[O-])c1.[Na+].[Na+] [Sodium salt, sodium 4,4'-diazidostilbene-2,2'-disulfonate, reference compound]
[2]
  Solubility: Fair
[3]
  Solubility: Fair
Solubility in water [1]; Table 5
  Solubility (water, 25° C.): 3.3%
[6]
  Solubility in 2.5% ethylcellosolve, 25° C.: Fair
  Solubility in 2.5% ethylcellosolve, 60° C.: Good

## CC1CC(=Cc2ccc(N=[N+]=[N-])cc2S(=O)(=O)O)C(=O)C(=Cc2ccc(N=[N+]=[N-])cc2S(=O)(=O)O)C1 (stereo not shown) [Comparative Example 13, Na salt of 2,6-bis(4'-azidobenzal)-4-methyl-cyclohexanone-2,2'-disulfonic acid, reference compound]
Solubility in water [1]; Table 6
  Solubility (water, 25° C.): 0.9%
